In patent US10376502B2, “Alkylated imino sugars exhibiting glucosidase inhibition and their method of use” (Baruch S. Blumberg Institute, priority 2012, dated 2019):

Tested on: BVDV
Assay: BVDV single cycle virus yield reduction assay with plaque titration
Assay type: cell-based, BVDV (NADL strain)
Conditions: Bovine viral diarrhea virus isolates and strains; MDBK cells, MOI 0.5, 22 hours post infection; compound 0.16 μM to 100 μM
Procedure: Cells and viruses: BVDV free MDBK cells (CCL 22) were obtained from the American Type Culture Collection and propagated in DMEMIF12 essential medium supplemented with penicillin (500 U/ml), streptomycin (500 U/ml), and 10% heat inactivated horse serum (Invitrogen). Cells were maintained in a humidified incubator at 37° C. with 5% C02. BVDV (NADL strain). For infections, virus inoculum was added in complete medium and adsorbed for 1 hour at 37‘C’, the inoculum was then removed, the cells washed once with medium and fresh medium containing compounds added. Virus stocks were prepared by freeze thawing the infected cells and culture supernatant three times followed by centrifugation at 1,000 g for 5 min., Stock titers were determined, and stocks were aliquoted and stored at −80° C. WNV was obtained from a eDNA clone of a human 2002 isolate from Texas; virus obtained from BHK cells electroporated with the in vitro synthesized RNA from this eDNA clone was passaged in Vero cells before use in antiviral assays. Dengue virus (DV) serotype 2 was a New Guinea C virus that had been passaged 28 times in suckling mouse brain, twice in Vero cells, and once in C6/36 mosquito cells.
BVDV antiviral and plaque assays: To evaluate antiviral activity against BVDV, a single cycle virus yield reduction assay was performed in the presence of from 0.16 μM to 100 μM through 5-fold dilution. Specifically, 2×10^5 MDBK cells/well were plated in 24 well plates. Twenty four hours later, the cells were infected with BVDV at multiplicity of infection (MOI) of 0.5 PFU/cell in 100 uL complete media. After adsorption for 1 hour at 37° C., the inoculum was removed, and cells were washed with media before media containing vehicle or from 0.16 μM to 100 μM through 5-fold dilution of test compound was added. At 22 hours post infection, both cells and media were collected and freeze-thawed three times before the virus was tittered. For BVDV virus, titer determination, 10^−2, 10^−3, 10^−4 dilutions of virus were inoculated onto MDBK cells as described previously. After absorption and washing the cells were overlaid with medium containing methylcellulose or soft agar and incubated at 37° C. for 3 days or until plaques were visible. Plaques were counted directly under the microscope or after staining with crystal violet in 70% methanol for 15 minutes.

**Q.** Which results are given for `CC(C)(C)C(=O)N(CCCCCCN1C[C@H](O)[C@@H](O)[C@H](O)[C@H]1CO)C1CCCCC1` [Entry 3]?
**A.** EC50: 0.2 µM; EC90: 13 µM

**Q.** Which EC50 does the source give for `CC(C)(C)C(=O)N(CCCCCCN1[C@H](CO)[C@@H](O)[C@H](O)[C@H]1CO)C1CCCCC1` [Entry 14] here?
**A.** 21 µM

**Q.** With `CC(=O)N(CCCCCCN1C[C@H](O)[C@@H](O)[C@H](O)[C@H]1CO)c1cc(F)ccc1F` [Entry 4] as the compound, how does the EC50 read?
**A.** 5 µM

**Q.** Which EC50 does the source give for `CC(C)(C)C(=O)Nc1cccc(CCCN2C[C@H](O)[C@@H](O)[C@H](O)[C@H]2CO)c1` [Entry 15] here?
**A.** 2.4 µM

**Q.** For `CC(C)(C)S(=O)(=O)N(CCCCCCN1C[C@H](O)[C@@H](O)[C@H](O)[C@H]1CO)C1CCCCC1` [Entry 17], which EC50 is on record?
**A.** 0.31 µM

**Q.** What about the EC90 of the same compound?
**A.** 50 µM

**Q.** For `CC(C)(C)C(=O)N(CCCCCCN1C[C@H](O)[C@@H](O)[C@H](O)[C@H]1CO)C1CC1` [Entry 10], which EC50 is on record?
**A.** 3.75 µM

**Q.** Which EC50 does the source give for `CC(C)(C)C(=O)N(CCCCCCN1C[C@H](O)[C@@H](O)[C@H](O)[C@H]1CO)C1CCCCCC1` [Entry 13] here?
**A.** 0.4 µM

**Q.** What about the EC90 of the same compound?
**A.** 9 µM

**Q.** For `CC(C)(C)C(=O)Nc1ccc(CCCN2C[C@H](O)[C@@H](O)[C@H](O)[C@H]2CO)cc1` [Entry 16], which EC50 is on record?
**A.** > 100 µM

**Q.** For `CC(C)C(=O)N(CCCCCCN1C[C@H](O)[C@@H](O)[C@H](O)[C@H]1CO)C1CCCCC1` [Entry 8], which EC50 is on record?
**A.** 0.45 µM

**Q.** What about the EC90 of the same compound?
**A.** 25 µM

**Q.** Which EC50 does the source give for `CC(C)(C)CC(=O)N(CCCCCCN1C[C@H](O)[C@@H](O)[C@H](O)[C@H]1CO)C1CCCCC1` [Entry 9] here?
**A.** 0.18 µM

**Q.** And the EC90?
**A.** 4 µM

**Q.** With `CC(=O)N(CCCCCCN1C[C@H](O)[C@@H](O)[C@H](O)[C@H]1CO)c1ccc(F)cc1F` [Entry 5] as the compound, how does the EC50 read?
**A.** 6 µM

**Q.** And the EC90?
**A.** 67 µM

**Q.** With `O=C(c1ccccc1)N(CCCCCCN1C[C@H](O)[C@@H](O)[C@H](O)[C@H]1CO)C1CCCCC1` [Entry 20] as the compound, how does the EC50 read?
**A.** 0.32 µM

**Q.** What about the EC90 of the same compound?
**A.** 11 µM

**Q.** For `CC(C)(C)C(=O)N(CCCCCCN1C[C@H](O)[C@@H](O)[C@H](O)[C@H]1CO)C1CCC1` [Entry 11], which EC50 is on record?
**A.** 0.8 µM

**Q.** For `CC1CCCCC1NCCCCCCN1C[C@H](O)[C@@H](O)[C@H](O)[C@H]1CO` (some centres unmarked) [Entry 2], which EC50 is on record?
**A.** 100 µM

**Q.** Which EC50 does the source give for `CC(C)(C)N[S+]([O-])N(CCCCCCN1C[C@H](O)[C@@H](O)[C@H](O)[C@H]1CO)C1CCCCC1` (some centres unmarked) [Entry 19] here?
**A.** 0.3 µM

**Q.** What about the EC90 of the same compound?
**A.** 25 µM

**Q.** With `CC(C)(C)C(=O)N(CCCCCCN1C[C@H](O)[C@@H](O)[C@H](O)[C@H]1CO)C1CCCC1` [Entry 12] as the compound, how does the EC50 read?
**A.** 0.85 µM

**Q.** What about the EC90 of the same compound?
**A.** 32 µM

**Q.** Which results are given for `CC(C)(C)C(=O)N(CCCCCCN1C[C@H](O)[C@@H](O)[C@H](O)[C@H]1CO)c1cc(F)ccc1F` [Entry 6]?
**A.** EC50: 0.4 µM; EC90: 18 µM

**Q.** Which results are given for `CC1CCCCC1N(CCCCCCN1C[C@H](O)[C@@H](O)[C@H](O)[C@H]1CO)C(=O)OC(C)(C)C` (some centres unmarked) [Entry 1]?
**A.** EC50: 0.4 µM; EC90: 3.5 µM

**Q.** Which results are given for `CC(C)(C)C(=O)N(CCCCCCN1C[C@H](O)[C@@H](O)[C@H](O)[C@H]1CO)c1ccc(F)cc1F` [Entry 7]?
**A.** EC50: 0.25 µM; EC90: 45 µM

**Q.** With `O=S(=O)(c1ccccc1)N(CCCCCCN1C[C@H](O)[C@@H](O)[C@H](O)[C@H]1CO)C1CCCCC1` [Entry 18] as the compound, how does the EC50 read?
**A.** 0.5 µM

**Q.** And the EC90?
**A.** 18 µM

Tested on: their target viruses
Assay: not given
Conditions: against their target viruses; cited from earlier work

**Q.** For `CCCCN1C[C@H](O)[C@@H](O)[C@H](O)[C@H]1CO` [NBDNJ, N-butyl-DNJ], which “concentrations to achieve EC50 values in tissue culture” value is on record?
**A.** near millimolar

**Q.** With `CCCC(=O)O[C@H]1CN2CC[C@H](O)[C@@H]2[C@@H](O)[C@@H]1O` [Cellgosovir] as the compound, how does the “concentrations to achieve EC50 values in tissue culture” value read?
**A.** near millimolar
